Measurements as given in ChEMBL document CHEMBL1201862, “PubChem BioAssay data set” (2004).
Activity calls are given as the source filed them.

How the values were obtained:
[1] = test system: INS1; assay: protection from cytokine-driven beta-cell apoptosis, dose response, JC-1 fluorescence, INS-1E, dry powder, set 2 (AID 488867); type: functional, cell-based; settings: Rattus norvegicus
[2] = test system: INS1; assay: protection from cytokine-induced mitochondrial depolarization, dose response, cell-based, INS-1E, JC-1 fluorescence ratio, dry powder (AID 488931); type: functional; settings: Rattus norvegicus
[3] = test system: INS1; assay: protection of INS-1E cells from cytokine death, dose response, ATP luminescence, dry powder (AID 488844); type: functional, cell-based; settings: Rattus norvegicus
[4] = target: T1, Hexokinase HKDC1 (Homo sapiens, UniProt Q2TB90); assay: HKDC1 hexokinase inhibitors, dose response, biochemical, W721R variant (AID 504729); type: functional
T1 sequence (Q2TB90 whole entry): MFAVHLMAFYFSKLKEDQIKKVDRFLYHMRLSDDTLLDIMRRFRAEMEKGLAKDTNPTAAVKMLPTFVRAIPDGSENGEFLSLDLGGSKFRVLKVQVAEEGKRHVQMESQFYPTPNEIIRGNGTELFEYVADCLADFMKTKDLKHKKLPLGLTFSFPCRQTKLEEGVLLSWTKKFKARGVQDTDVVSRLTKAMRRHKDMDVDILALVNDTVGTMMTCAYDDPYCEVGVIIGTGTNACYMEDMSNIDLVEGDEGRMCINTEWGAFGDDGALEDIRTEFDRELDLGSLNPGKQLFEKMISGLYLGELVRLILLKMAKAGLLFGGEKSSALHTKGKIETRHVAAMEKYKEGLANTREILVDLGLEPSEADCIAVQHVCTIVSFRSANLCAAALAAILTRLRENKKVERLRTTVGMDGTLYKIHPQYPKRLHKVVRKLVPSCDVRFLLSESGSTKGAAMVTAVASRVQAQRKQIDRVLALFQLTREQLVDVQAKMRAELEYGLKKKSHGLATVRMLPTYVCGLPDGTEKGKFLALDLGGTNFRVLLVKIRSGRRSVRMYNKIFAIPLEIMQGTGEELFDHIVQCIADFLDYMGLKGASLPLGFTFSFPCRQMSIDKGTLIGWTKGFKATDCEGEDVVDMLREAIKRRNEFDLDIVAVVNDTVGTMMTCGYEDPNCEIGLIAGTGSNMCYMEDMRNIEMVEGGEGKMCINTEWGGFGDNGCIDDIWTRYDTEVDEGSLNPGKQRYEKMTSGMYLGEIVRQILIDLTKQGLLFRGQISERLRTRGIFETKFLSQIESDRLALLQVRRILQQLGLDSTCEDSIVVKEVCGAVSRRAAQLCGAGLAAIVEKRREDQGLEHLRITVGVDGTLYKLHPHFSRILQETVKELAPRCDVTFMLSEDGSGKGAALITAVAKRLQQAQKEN

[5] = target: T2, Replicative DNA helicase DnaB (Mycobacterium tuberculosis, UniProt P9WMR3); assay: DnaB intein splicing inhibitors, dose response, biochemical, cell-free fluorescence (AID 449749); type: functional
T2 sequence (P9WMR3 whole entry): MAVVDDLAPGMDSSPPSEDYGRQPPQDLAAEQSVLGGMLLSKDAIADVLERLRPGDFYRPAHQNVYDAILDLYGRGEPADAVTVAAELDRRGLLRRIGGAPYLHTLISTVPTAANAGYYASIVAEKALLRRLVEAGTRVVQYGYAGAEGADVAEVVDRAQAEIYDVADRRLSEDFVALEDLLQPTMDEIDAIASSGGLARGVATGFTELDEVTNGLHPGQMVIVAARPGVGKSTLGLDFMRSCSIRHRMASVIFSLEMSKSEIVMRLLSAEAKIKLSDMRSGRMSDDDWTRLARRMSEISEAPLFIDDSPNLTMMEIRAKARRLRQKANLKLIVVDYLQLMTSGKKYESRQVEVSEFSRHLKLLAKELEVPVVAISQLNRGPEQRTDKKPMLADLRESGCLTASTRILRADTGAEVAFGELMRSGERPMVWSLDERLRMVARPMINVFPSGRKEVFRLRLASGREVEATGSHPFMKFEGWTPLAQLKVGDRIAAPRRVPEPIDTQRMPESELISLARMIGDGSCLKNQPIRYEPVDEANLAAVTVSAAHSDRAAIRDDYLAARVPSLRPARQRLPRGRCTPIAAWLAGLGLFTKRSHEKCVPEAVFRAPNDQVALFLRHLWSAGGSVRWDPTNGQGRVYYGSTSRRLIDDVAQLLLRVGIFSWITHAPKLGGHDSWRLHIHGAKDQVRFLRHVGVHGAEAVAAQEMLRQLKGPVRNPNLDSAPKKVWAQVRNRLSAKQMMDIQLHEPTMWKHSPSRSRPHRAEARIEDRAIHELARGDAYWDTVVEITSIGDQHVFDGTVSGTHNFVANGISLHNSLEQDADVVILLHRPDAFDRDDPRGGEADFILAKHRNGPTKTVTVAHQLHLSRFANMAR

[6] = target: Hexokinase-1 (Homo sapiens, UniProt P19367); assay: HK1 enzyme inhibition by HKDC1 hits, SAR follow-up, selectivity assay for HKDC1 inhibitor project, biochemical, set 2, resazurin fluorescence coupled readout (AID 588356); type: functional
[7] = target: T3, Protein RecA (Mycobacterium tuberculosis, UniProt P9WHJ3); assay: Fluorescence Cell-Free Homogeneous Dose Retest to Identify Inhibitors of RecA-Intein Splicing Activity. [Related pubchem assays (depositor defined):AID2097, AID2223, AID489010, AID492950]; type: functional
T3 sequence (P9WHJ3 whole entry): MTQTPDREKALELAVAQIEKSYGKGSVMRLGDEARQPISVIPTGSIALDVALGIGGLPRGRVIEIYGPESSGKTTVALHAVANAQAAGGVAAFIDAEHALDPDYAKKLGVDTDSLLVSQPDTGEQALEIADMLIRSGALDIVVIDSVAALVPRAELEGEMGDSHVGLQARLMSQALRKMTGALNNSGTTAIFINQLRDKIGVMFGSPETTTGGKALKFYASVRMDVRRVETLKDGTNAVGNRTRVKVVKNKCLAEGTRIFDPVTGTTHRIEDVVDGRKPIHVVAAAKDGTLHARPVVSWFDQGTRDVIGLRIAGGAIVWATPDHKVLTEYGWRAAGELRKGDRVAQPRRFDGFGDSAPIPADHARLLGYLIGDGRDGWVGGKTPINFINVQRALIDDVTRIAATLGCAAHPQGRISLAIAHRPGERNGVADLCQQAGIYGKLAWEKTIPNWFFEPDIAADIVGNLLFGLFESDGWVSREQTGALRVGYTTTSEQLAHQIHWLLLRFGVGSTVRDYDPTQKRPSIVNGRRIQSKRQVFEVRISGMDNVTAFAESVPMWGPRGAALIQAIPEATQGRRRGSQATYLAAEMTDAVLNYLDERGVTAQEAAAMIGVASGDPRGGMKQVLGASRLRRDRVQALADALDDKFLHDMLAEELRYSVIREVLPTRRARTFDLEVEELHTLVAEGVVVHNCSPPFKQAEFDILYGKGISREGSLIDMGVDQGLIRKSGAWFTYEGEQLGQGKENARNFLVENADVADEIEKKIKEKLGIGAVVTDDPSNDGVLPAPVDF

[8] = target: T1, Hexokinase HKDC1; assay: HKDC1 hexokinase inhibitors, SAR follow-up, biochemical, set 2 (AID 588355); type: functional
[9] = target: Keap1/Nrf2 (Homo sapiens, UniProt Q14145); assay: Keap1-Nrf2 protein-protein interaction inhibitors, dose response, biochemical, fluorescence polarization, cherry-picked samples (AID 588683)
[10] = target: Beta-lactamase (Pseudomonas aeruginosa, UniProt Q79MP6);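 also: biochemical dose-response test of metallo-beta-lactamase enzyme inhibition, read out by epi-absorbance; purified recombinant IMP-1 metallo-beta-lactamase with nitrocefin as substrate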
[11] = target: ORF 73 (Human herpesvirus 8, UniProt O40947); assay: inhibitors of C-LANA binding to LBS DNA, dose response, biochemical, fluorescence polarization, cherry-picked samples (AID 504725); set-up: species or system Human gammaherpesvirus 8;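 also: fluorescence polarization of a labeled DNA duplex reporting LANA DNA binding; potency is for inhibitors that block LANA binding to the DNA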
Chain of ORF 73 (O40947 whole entry): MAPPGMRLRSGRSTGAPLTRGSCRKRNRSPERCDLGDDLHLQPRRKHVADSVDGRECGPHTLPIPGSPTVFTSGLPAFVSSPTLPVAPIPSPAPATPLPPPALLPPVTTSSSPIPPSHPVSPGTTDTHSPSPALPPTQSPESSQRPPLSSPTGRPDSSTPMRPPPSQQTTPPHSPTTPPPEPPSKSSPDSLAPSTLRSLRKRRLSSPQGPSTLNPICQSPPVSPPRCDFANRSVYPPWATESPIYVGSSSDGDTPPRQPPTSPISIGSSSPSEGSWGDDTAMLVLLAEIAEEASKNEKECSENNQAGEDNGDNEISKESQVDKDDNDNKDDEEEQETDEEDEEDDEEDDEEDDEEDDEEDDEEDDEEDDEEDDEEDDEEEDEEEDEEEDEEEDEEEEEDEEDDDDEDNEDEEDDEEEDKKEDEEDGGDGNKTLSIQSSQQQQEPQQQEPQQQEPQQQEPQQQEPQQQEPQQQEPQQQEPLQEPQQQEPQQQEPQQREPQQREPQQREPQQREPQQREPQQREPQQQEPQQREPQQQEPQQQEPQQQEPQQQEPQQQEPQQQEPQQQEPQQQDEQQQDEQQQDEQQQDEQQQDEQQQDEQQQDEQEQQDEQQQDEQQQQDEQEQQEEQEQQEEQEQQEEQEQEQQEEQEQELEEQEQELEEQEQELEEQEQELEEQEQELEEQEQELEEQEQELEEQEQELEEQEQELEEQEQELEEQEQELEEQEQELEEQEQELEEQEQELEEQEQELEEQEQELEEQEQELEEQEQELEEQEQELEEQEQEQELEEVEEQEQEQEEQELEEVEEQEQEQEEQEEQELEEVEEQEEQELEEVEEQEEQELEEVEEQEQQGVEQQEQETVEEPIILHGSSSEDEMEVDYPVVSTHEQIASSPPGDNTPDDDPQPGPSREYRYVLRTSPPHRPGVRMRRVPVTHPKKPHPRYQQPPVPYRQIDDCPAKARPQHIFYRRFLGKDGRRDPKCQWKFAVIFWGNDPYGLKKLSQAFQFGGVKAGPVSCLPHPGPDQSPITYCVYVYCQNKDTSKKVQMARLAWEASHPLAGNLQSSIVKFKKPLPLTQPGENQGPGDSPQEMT

[12] = target: Beta-lactamase (Salmonella choleraesuis (strain SC-B67), UniProt Q5J463)
[13] = target: T4, Insulin-degrading enzyme (Homo sapiens, UniProt P14735); assay: activators of endogenous IDE in HEK cells, dose response, cell-based, fluorescence polarization (AID 588439); type: functional
T4 sequence (P14735 whole entry): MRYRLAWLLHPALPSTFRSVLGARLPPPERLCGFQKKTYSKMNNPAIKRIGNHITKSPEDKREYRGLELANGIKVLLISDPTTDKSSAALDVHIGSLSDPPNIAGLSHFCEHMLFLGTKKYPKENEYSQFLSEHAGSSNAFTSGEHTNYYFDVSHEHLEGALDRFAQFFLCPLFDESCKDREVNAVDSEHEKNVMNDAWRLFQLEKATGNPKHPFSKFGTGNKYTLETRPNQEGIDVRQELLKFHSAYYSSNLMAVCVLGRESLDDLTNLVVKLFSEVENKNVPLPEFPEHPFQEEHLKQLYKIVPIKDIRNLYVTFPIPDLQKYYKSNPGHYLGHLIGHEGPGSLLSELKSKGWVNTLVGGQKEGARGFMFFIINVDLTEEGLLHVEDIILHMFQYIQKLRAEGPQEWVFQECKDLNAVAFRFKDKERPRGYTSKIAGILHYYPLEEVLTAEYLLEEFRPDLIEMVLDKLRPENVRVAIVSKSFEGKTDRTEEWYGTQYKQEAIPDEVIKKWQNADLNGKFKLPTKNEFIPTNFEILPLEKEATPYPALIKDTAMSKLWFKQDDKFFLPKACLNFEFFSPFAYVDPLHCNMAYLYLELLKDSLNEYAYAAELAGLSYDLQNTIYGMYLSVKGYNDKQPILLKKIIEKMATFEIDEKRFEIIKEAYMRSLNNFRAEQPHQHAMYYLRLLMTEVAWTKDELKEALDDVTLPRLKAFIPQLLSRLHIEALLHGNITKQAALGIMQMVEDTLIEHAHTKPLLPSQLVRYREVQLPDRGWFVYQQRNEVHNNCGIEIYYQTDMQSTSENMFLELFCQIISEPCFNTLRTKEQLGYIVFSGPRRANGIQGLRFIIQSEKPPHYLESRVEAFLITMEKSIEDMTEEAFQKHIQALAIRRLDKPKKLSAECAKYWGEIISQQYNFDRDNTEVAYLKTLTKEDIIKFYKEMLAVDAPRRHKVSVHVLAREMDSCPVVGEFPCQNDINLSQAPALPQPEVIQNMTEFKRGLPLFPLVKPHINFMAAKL

[14] = test system: HEK293; assay: HEK cell cytotoxicity by LDH release, dose response, cytotoxicity control for IDE activator project, fluorescence, HEK cells (AID 588440); type: functional, cell-based; settings: Homo sapiens;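 also: cytotoxicity by LDH release measuring loss of membrane integrity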
[15] = target: T4, Insulin-degrading enzyme; assay: activators of recombinant IDE enzyme, dose response, counter-screen for IDE activator project, biochemical, fluorescence polarization (AID 588681)
[16] = test system: HEK293; assay: optical interference in Abeta FP readout, dose response, artefact control for IDE activator project, biochemical, fluorescence polarization (AID 588442); type: functional, cell-based; settings: Homo sapiens
[17] = target: Voltage-gated inwardly rectifying potassium channel KCNH2 (Homo sapiens, UniProt Q12809); settings: Potency;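 also: confirmatory quantitative high-throughput screen measuring inhibition of hERG channel activity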
[18] = HEp-2 cell cytotoxicity, dose response, cytotoxicity control for RSV inhibitor project, HTS (AID 2410); type: functional; settings: human respiratory syncytial virus
[19] = target: Phospholipase D1 (Homo sapiens, UniProt Q13393); assay: PLD1 inhibitor potency in cells, dose response (AID 602151); type: functional;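 also: cellular PLD1 assay in Calu-1 cells stimulated with PMA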
Chain of Phospholipase D1 (Q13393 whole entry): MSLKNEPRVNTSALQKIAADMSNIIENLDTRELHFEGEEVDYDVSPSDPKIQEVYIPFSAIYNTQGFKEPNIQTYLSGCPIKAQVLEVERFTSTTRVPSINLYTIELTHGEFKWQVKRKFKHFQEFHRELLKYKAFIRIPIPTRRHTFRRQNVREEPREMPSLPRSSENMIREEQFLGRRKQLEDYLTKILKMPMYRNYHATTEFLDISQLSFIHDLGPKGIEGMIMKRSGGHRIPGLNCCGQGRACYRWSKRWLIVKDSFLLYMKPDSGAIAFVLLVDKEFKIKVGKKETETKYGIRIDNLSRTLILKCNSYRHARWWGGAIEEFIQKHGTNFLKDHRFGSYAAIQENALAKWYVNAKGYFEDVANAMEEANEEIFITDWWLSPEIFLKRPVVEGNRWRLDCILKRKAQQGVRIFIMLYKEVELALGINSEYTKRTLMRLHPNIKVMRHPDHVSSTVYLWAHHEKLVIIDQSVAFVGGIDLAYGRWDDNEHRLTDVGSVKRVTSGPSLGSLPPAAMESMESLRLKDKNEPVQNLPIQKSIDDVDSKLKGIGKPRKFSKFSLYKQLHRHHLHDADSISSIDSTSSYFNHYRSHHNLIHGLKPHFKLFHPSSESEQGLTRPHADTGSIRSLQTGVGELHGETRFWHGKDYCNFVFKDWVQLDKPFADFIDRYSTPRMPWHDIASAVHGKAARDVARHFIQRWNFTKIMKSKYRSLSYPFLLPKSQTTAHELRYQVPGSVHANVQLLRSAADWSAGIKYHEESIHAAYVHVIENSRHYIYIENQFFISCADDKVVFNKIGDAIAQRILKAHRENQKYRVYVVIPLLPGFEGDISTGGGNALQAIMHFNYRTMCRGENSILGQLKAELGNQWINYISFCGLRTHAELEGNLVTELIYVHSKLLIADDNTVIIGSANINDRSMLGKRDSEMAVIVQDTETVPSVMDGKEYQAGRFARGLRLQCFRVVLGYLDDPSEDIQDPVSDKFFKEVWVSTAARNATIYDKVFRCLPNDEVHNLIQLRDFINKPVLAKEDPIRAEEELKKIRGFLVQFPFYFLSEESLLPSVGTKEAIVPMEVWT

[20] = target: Phospholipase D2 (Homo sapiens, UniProt O14939); assay: PLD2 inhibitor potency in cells, dose response (AID 602147); type: functional;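 also: cellular assay in HEK293 cells overexpressing GFP-tagged PLD2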
Chain of Phospholipase D2 (O14939 whole entry): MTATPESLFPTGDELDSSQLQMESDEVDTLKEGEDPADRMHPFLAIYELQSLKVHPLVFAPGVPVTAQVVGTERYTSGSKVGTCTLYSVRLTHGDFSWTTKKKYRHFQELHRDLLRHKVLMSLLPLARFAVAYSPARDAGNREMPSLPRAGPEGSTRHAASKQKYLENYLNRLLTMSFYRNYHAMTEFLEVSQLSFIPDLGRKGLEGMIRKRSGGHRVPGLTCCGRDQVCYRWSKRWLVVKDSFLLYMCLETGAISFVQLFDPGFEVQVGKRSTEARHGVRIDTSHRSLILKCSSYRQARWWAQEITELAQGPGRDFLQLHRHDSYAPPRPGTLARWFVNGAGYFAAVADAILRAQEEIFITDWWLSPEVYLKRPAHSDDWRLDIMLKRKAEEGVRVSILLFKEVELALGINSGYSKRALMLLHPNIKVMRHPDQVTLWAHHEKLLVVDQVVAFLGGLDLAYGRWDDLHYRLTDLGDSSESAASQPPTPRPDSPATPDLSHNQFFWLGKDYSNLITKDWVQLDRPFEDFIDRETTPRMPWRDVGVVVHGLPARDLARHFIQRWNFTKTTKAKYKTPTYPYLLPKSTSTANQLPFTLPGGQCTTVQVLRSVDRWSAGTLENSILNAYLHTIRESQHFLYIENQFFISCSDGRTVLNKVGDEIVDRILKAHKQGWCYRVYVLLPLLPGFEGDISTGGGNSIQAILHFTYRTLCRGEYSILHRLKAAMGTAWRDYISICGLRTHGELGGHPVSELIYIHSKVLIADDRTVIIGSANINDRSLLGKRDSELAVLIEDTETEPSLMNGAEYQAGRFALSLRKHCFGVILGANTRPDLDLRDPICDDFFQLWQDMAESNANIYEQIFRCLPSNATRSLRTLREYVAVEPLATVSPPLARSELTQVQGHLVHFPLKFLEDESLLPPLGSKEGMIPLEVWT

[21] = cytotoxicity toward NIH3T3 fibroblasts, dose response, counter-screen, cell-based, ATP luminescence, mouse fibroblasts (AID 2010); type: functional;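 also: cells exposed to compound for about 90 hours before reading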
[22] = inhibitors of SNCA 5'UTR-driven reporter translation, confirmation, H4 neuroglioma cells, luminescence (AID 1988); type: functional, cell-based
[23] = Luminescence Cell-Based Dose Response HTS to Identify Inhibitors of 5'UTR Stem-Loop Driven Prion Protein mRNA Translation in H4 Neuroglioblastoma Cells. [Related pubchem assays: 1827 (Project Summary), 1813 (Primary HTS)]; type: functional
[24] = target: DNA topoisomerase (Yersinia pestis, UniProt A0A2S9PM60); assay: Y. pestis Topo-I inhibitors, cleavage product readout, dose response, biochemical, cherry-pick (AID 588525)
Chain of DNA topoisomerase (A0A2S9PM60 whole entry): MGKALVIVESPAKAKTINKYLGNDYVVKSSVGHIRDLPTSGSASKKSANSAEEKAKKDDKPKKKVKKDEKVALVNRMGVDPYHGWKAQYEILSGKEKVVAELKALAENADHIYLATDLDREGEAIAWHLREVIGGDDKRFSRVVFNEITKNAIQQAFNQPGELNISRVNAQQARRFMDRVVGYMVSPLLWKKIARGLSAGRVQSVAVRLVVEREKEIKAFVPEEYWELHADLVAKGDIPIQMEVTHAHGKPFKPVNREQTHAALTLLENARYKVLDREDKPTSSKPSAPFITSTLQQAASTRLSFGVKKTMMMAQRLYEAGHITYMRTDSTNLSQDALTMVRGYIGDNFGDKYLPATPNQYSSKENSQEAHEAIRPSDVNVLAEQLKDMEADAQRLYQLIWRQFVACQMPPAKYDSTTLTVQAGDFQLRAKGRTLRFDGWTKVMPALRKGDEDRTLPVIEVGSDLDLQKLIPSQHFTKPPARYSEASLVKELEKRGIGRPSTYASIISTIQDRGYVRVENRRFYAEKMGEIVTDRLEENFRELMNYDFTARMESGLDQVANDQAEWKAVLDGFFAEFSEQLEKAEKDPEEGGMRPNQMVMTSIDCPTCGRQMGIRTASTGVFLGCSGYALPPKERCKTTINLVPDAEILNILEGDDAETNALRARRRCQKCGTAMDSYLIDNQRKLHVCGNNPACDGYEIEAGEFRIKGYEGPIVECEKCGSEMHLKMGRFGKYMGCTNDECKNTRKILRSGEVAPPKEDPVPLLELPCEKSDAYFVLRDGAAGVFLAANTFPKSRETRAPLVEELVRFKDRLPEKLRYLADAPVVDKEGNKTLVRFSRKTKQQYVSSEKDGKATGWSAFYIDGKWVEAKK

[25] = inhibitors of intracellular T. cruzi replication, confirmation, NIH3T3 host cells, beta-gal luminescence (AID 2044); type: functional, cell-based;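 also: intracellular parasites grown in NIH/3T3 mouse fibroblasts as host cells; luminescent beta-galactosidase reporter signal from transgenic T. cruzi replicating inside host cells; inhibitors lower the luminescence signal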
[26] = inhibitors of firefly luciferase expression or activity, dose response, H4 neuroglioma cells, luminescence (AID 1990); type: functional, cell-based

With `COc1ccc(S(=O)(=O)N(C)C[C@@H]2Oc3c(NC(=O)Nc4ccccc4)cccc3C(=O)N([C@@H](C)CO)C[C@H]2C)cc1` the AC50 [1] was 58.9 µM (active), the AC50 [2] was 34.8 µM (active) and the AC50 [3] was > 260 µM (inactive).
With `CC(=O)NC1C(=O)N(CCN2CCOCC2)c2ccc(C)cc21` (configuration not stated) the IC50 [4] was 4.71 µM (active), the AC50 [5] was 22.1 µM (active) and the IC50 [6] was > 80 µM (inactive). For the same molecule, the EC50 [7] was 8.53 µM (active) and the IC50 [8] was 4.45 µM (active).
For `CNc1ccc2c3c(cccc13)C(=O)N(C)C2=O`, the AC50 [9] was 0.399 µM (active), the IC50 [10] was 3.92 µM (active) and the AC50 [11] was 0.588 µM (active). The IC50 [12] was 2.2 µM (active), the EC50 [13] was > 54.8 µM (inactive) and the IC50 [14] was > 89.3 µM (inactive). For the same molecule, the EC50 [15] was > 54.8 µM (inactive) and the EC50 [16] was 6.57 µM (active).
With `CCCCOc1cc(CC2CNC(=O)N2)ccc1OC` (configuration not stated) [RO-201724] the AC50 [17] was 3.55 µM (inconclusive) and the CC50 [18] was 23.8 µM (active).
In the case of `O=C(NCCN1CCC2(CC1)C(=O)NCN2c1ccccc1)c1ncc(F)cc1F`, the IC50 [19] is reported as 20 µM (active) and the IC50 [20] is reported as 5.4 µM (active).
In the case of `COc1ccc(-c2nc3c(c(=O)[nH]c(=O)n3Cc3ccccc3)n2Cc2ccccc2)cc1`, the EC50 [21] is reported as > 60 µM (inconclusive), the EC50 [22] is reported as 17.7 µM (active) and the EC50 [23] is reported as > 120 µM (not active). For the same molecule, the AC50 [24] was 7.41 µM (active), the CC50 [18] was 7.31 µM (active) and the EC50 [25] was 0.826 µM (active). The EC50 [26] was 26.7 µM (active).
